Results: the supplement of paper PMC10307832

Legend:
Experiment in all cases: relative viability (nuclei count vs DMSO), 5 days (fraction); higher = more cells survive
Obatoclax + Navitoclax = compound: COC1=CC(c2cc3ccccc3[nH]2)=N/C1=C\c1[nH]c(C)cc1C [Obatoclax] + CC1(C)CCC(c2ccc(Cl)cc2)=C(CN2CCN(c3ccc(C(=O)NS(=O)(=O)c4ccc(N[C@H](CCN5CCOCC5)CSc5ccccc5)c(S(=O)(=O)C(F)(F)F)c4)cc3)CC2)C1 [Navitoclax] (partner 0.5 µM)
How it was run: (§1)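 For relative viability, nuclei counts in treated wells were divided by those in vehicle wells. Lung cancer cell lines had been pin-tool dosed in 1536-well plates the day after seeding and cultured for 5 days, then fixed and stained in one step (final 0.05% Triton X-100, 1% formaldehyde, 1 ug/ml Hoechst) and imaged at 4×. Doses were one drug alone or a fixed anchor-drug dose plus five library-drug doses (not always all listed) in √10 steps, and values are duplicate-plate medians.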

Obatoclax + Trametinib = compound: COC1=CC(c2cc3ccccc3[nH]2)=N/C1=C\c1[nH]c(C)cc1C [Obatoclax] + CC(=O)Nc1cccc(-n2c(=O)n(C3CC3)c(=O)c3c(Nc4ccc(I)cc4F)n(C)c(=O)c(C)c32)c1 [Trametinib] (partner 0.02 µM)
How it was run: as §1

Obatoclax + Alpelisib = compound: COC1=CC(c2cc3ccccc3[nH]2)=N/C1=C\c1[nH]c(C)cc1C [Obatoclax] + Cc1nc(NC(=O)N2CCC[C@H]2C(N)=O)sc1-c1ccnc(C(C)(C)C(F)(F)F)c1 [Alpelisib] (partner 2 µM)
How it was run: as §1

[1] = compound: CC1=CC(=NN1)NC2=CC(=NC(=N2)/C=C/C3=CC=CC=C3)N4CCN(CC4)C + Cc1nc(NC(=O)N2CCC[C@H]2C(N)=O)sc1-c1ccnc(C(C)(C)C(F)(F)F)c1 [Alpelisib] (partner 2 µM)
How it was run: as §1

Row | Cell Line | relative viability (Obatoclax + Navitoclax; first compound 0.01 µM) | relative viability (Obatoclax + Navitoclax; first compound 0.03162 µM) | relative viability (Obatoclax + Navitoclax; first compound 0.1 µM) | relative viability (Obatoclax + Navitoclax; first compound 0.3162 µM) | relative viability (Obatoclax + Navitoclax; first compound 1 µM) | relative viability (Obatoclax + Trametinib; first compound 0.01 µM) | relative viability (Obatoclax + Trametinib; first compound 0.03162 µM) | relative viability (Obatoclax + Trametinib; first compound 0.1 µM) | relative viability (Obatoclax + Trametinib; first compound 0.3162 µM) | relative viability (Obatoclax + Trametinib; first compound 1 µM) | relative viability (Obatoclax + Alpelisib; first compound 0.01 µM) | relative viability (Obatoclax + Alpelisib; first compound 0.03162 µM) | relative viability (Obatoclax + Alpelisib; first compound 0.1 µM) | relative viability (Obatoclax + Alpelisib; first compound 0.3162 µM) | relative viability (Obatoclax + Alpelisib; first compound 1 µM) | relative viability ([1]; first compound 0.08 µM) | relative viability ([1]; first compound 0.253 µM) | relative viability ([1]; first compound 0.8 µM) | relative viability ([1]; first compound 2.53 µM) | relative viability ([1]; first compound 8 µM)
1 | NCI-H838 | 1.14 | 1.26 | 1.03 | 0.776 | 0.573 | 0.548 | 0.559 | 0.346 | 0.493 | 0.248 | 0.968 | 0.992 | 0.914 | 0.822 | 0.617 | 1.02 | 1.13 | 0.884 | 0.749 | 0.139
2 | NCI-H1792 | 0.647 | 0.586 |  | 0.626 | 0.561 | 0.365 | 0.302 | 0.417 | 0.509 | 0.411 | 0.746 | 0.658 |  | 0.638 | 0.781 | 0.648 | 0.8 | 0.726 | 0.475 | 0.213
3 | H3255 | 0.517 | 0.544 | 0.681 | 0.537 | 0.438 | 0.561 | 0.629 |  | 0.631 | 0.615 | 0.611 | 0.725 | 0.732 | 0.631 | 0.55 | 0.753 | 0.735 | 0.772 | 0.593 | 0.182
4 | EPLC-272H | 1.1 | 1.16 | 1.38 | 1.03 | 1.26 | 0.306 | 0.301 | 0.352 | 0.252 | 0.301 | 1.08 | 0.962 | 0.808 | 0.906 | 0.941 | 0.901 | 1.07 | 0.79 | 0.513 | 0.244
5 | NCI-H647 | 1.11 | 0.974 | 0.633 | 0.477 | 0.229 | 0.406 | 0.475 | 0.422 | 0.22 | 0.127 | 1.09 | 1.3 | 0.875 | 0.265 | 0.148 | 0.927 | 1.11 | 0.782 | 0.05 | 0.0332
6 | LXF-289 | 0.912 | 0.883 | 0.926 | 0.905 | 0.96 | 0.642 | 0.663 | 0.671 | 0.707 | 0.671 | 1.01 | 0.944 | 1.04 | 1.04 | 0.963 | 1.07 | 1.06 | 0.919 | 0.199 | 0.0577
7 | NCI-H1755 | 0.974 | 0.966 | 1 | 0.951 | 1.04 | 0.673 | 0.769 | 0.77 | 0.752 | 0.799 | 0.871 | 0.906 | 0.871 | 0.871 | 0.889 | 0.9 | 1.07 | 0.887 | 0.456 | 0.155
8 | HCC-15 | 0.726 | 0.726 | 0.645 | 0.569 | 0.469 | 0.43 | 0.297 | 0.401 | 0.353 | 0.411 | 0.844 | 0.777 | 0.827 | 0.856 | 0.609 | 0.856 | 1.03 | 0.828 | 0.494 | 0.0833
9 | EMC-BAC-2 | 1.15 | 1.18 | 1.13 | 1.19 | 1.22 | 0.959 | 0.937 |  | 0.89 | 0.557 | 0.658 | 0.797 | 0.744 | 0.738 | 0.696 | 0.748 | 0.717 | 0.662 | 0.521 | 0.154
10 | NCI-H1734 | 0.745 | 0.841 |  | 0.723 | 0.668 | 0.636 | 0.744 | 0.688 | 0.681 | 0.689 | 0.682 | 0.619 |  | 0.57 | 0.511 | 0.601 | 0.695 | 0.692 | 0.375 | 0.189
11 | NCI-H1395 | 1.2 | 1.13 | 0.949 | 0.865 | 0.69 | 0.914 | 0.999 | 0.931 | 0.94 | 0.737 | 1.14 | 1.2 | 0.982 | 0.954 | 0.474 | 1 | 1.07 | 1.03 | 0.602 | 0.289
12 | HOP-62 | 1.06 | 1.01 | 1.01 | 0.989 | 0.932 | 0.406 | 0.318 | 0.389 | 0.388 | 0.408 | 0.903 | 0.771 | 0.951 | 1.02 | 1.21 | 0.937 | 1.09 | 0.931 | 0.942 | 0.164
13 | LK-2 | 0.885 | 0.822 | 0.957 | 0.864 | 1.02 | 0.846 | 0.794 | 1.02 | 0.783 | 0.914 | 1.07 | 1.13 | 1.43 | 1.07 | 1.03 | 1.1 | 0.668 | 0.966 | 0.605 | 0.211
14 | SW 1573 | 1.04 | 0.788 | 0.989 | 0.937 | 0.267 | 0.669 | 0.606 | 0.346 | 0.144 | 0.152 | 0.789 | 0.701 | 0.946 | 0.672 | 0.556 | 0.886 | 1.07 | 0.785 | 0.499 | 0.124
15 | SK-LU-1 | 0.753 | 0.871 | 0.424 | 0.222 | 0.216 | 0.454 | 0.568 | 0.447 | 0.414 | 0.311 | 0.825 | 0.984 | 0.779 | 0.355 | 0.29 | 1.05 | 0.972 | 0.636 | 0.223 | 0.113
16 | NCI-H23 | 0.907 | 0.733 | 0.847 | 0.537 | 0.813 | 0.384 | 0.442 | 0.451 | 0.357 | 0.363 | 0.667 | 0.607 | 0.691 | 0.604 | 0.569 | 0.55 | 0.859 | 0.704 | 0.265 | 0.12
